Assay results as given in ChEMBL document CHEMBL1201862, “PubChem BioAssay data set” (2004).
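48-hour exposure; five concentrations; linearly interpolated endpoints. GI50 = concentration required for 50% inhibition of growth.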 Active and inactive are the calls of the source. Rule as the data show it: active = GI50 up to about 1.1 µM and inactive = higher.

Legend:
Experiment in all cases: NCI-60 cell line screen, 48 h
786-0 = test system: 786-0
A549 = test system: A549
ACHN = test system: ACHN
CAKI-1 = test system: CAKI-1
CCRF-CEM = test system: CCRF-CEM
COLO 205 = test system: COLO 205
DLD-1 = test system: DLD-1
DMS-114 = test system: DMS-114
DMS-273 = test system: DMS-273
EKVX = test system: EKVX
HCC 2998 = test system: HCC 2998
HCT-116 = test system: HCT-116
HCT-15 = test system: HCT-15
HL-60 = test system: HL-60
HOP-18 = test system: HOP-18
HOP-62 = test system: HOP-62
HOP-92 = test system: HOP-92
HT-29 = test system: HT-29
IGROV-1 = test system: IGROV-1
K562 = test system: K562
KM-20L2 = test system: KM-20L2
KM12 = test system: KM12
LOX IMVI = test system: LOX IMVI
LXFL 529 = test system: LXFL 529
M14 = test system: M14
M19-MEL = test system: M19-MEL
MOLT-4 = test system: MOLT-4
Malme-3M = test system: Malme-3M
NCI-H226 = test system: NCI-H226
NCI-H23 = test system: NCI-H23
NCI-H460 = test system: NCI-H460
NCI-H522 = test system: NCI-H522
OVCAR-3 = test system: OVCAR-3
OVCAR-4 = test system: OVCAR-4
OVCAR-5 = test system: OVCAR-5
OVCAR-8 = test system: OVCAR-8
RXF 393 = test system: RXF 393
SF-268 = test system: SF-268
SF-295 = test system: SF-295
SF-539 = test system: SF-539
SK-MEL-28 = test system: SK-MEL-28
SK-MEL-2 = test system: SK-MEL-2
SK-OV-3 = test system: SK-OV-3
SN12C = test system: SN12C
SNB-19 = test system: SNB-19
SNB-75 = test system: SNB-75
SNB-78 = test system: SNB-78
SR = test system: SR
SW-620 = test system: SW-620
TK-10 = test system: TK-10
U-251 = test system: U-251
UACC-257 = test system: UACC-257
UACC-62 = test system: UACC-62
UO-31 = test system: UO-31
XF498 = test system: XF498

COc1ccc(/C=C/C(=N\NC(=O)c2ccccc2)c2sc(Nc3ccc([N+](=O)[O-])cc3)nc2C)cc1OC
GI50 (786-0): 10.5 µM (inactive) | GI50 (A549): 10.6 µM (inactive) | GI50 (ACHN): 14.7 µM (inactive) | GI50 (CAKI-1): 17.7 µM (inactive) | GI50 (CCRF-CEM): 2.34 µM (inactive) | GI50 (COLO 205): 21.3 µM (inactive) | GI50 (DLD-1): 6.27 µM (inactive) | GI50 (DMS-114): 15.1 µM (inactive) | GI50 (DMS-273): 12.5 µM (inactive) | GI50 (EKVX): 18.6 µM (inactive) | GI50 (HCC 2998): 29.6 µM (inactive) | GI50 (HCT-116): 7.31 µM (inactive) | GI50 (HCT-15): 7.89 µM | GI50 (HL-60): 2.62 µM (inactive) | GI50 (HOP-18): 27.7 µM (inactive) | GI50 (HOP-62): 18.2 µM (inactive) | GI50 (HOP-92): < 0.01 µM (active) | GI50 (HT-29): 17 µM (inactive) | GI50 (IGROV-1): > 10 µM (inactive) | GI50 (K562): 3.18 µM (inactive) | GI50 (KM-20L2): 8.67 µM (inactive) | GI50 (KM12): 7.73 µM (inactive) | GI50 (LOX IMVI): 3.75 µM (inactive) | GI50 (LXFL 529): 7.67 µM (inactive) | GI50 (M14): 14.1 µM (inactive) | GI50 (M19-MEL): 12.6 µM (inactive) | GI50 (MOLT-4): 2.77 µM (inactive) | GI50 (Malme-3M): 19.2 µM (inactive) | GI50 (NCI-H226): 18.2 µM (inactive) | GI50 (NCI-H23): > 10 µM (inactive) | GI50 (NCI-H460): 16.5 µM (inactive) | GI50 (NCI-H522): 4.24 µM (inactive) | GI50 (OVCAR-3): 23.3 µM (inactive) | GI50 (OVCAR-4): 11.6 µM (inactive) | GI50 (OVCAR-5): 27.7 µM (inactive) | GI50 (OVCAR-8): 9.57 µM (inactive) | GI50 (RXF 393): 12.9 µM (inactive) | GI50 (SF-268): 13.2 µM (inactive) | GI50 (SF-295): 11.2 µM (inactive) | GI50 (SF-539): 21.1 µM (inactive) | GI50 (SK-MEL-28): 21.1 µM (inactive) | GI50 (SK-MEL-2): 15.9 µM (inactive) | GI50 (SK-OV-3): 45.8 µM (inactive) | GI50 (SN12C): 13.9 µM (inactive) | GI50 (SNB-19): 12.4 µM (inactive) | GI50 (SNB-75): 5.57 µM (inactive) | GI50 (SNB-78): 8.55 µM (inactive) | GI50 (SR): 5.18 µM (inactive) | GI50 (SW-620): 16 µM (inactive) | GI50 (TK-10): 29.3 µM (inactive) | GI50 (U-251): 5.3 µM (inactive) | GI50 (UACC-257): 12.6 µM (inactive) | GI50 (UACC-62): 2.75 µM (inactive) | GI50 (UO-31): 15.6 µM (inactive) | GI50 (XF498): 10.3 µM (inactive)
